Laboratory results as given in patent publication US12527835B2, “Brevican-binding peptides for brain tumor imaging” (The Brigham and Women's Hospital, Inc., priority 2018, dated 2026).

Legend:
[1] = cited from earlier work
human BBB organoids = experiment: BBB organoid peptide permeability assay; format: in vitro ADME; conditions: Cy5.5-labeled peptide, 10 μM, 3 hrs
Experimental: Immortalized hCMEC/D3, primary HBVP and primary human astrocytes were used for generation of BBB organoids as previously described (Cho et al., Nat Commun 8, 15623 (2017); Fadzen et al., J. Am. Chem. Soc. 139, 15628-15631 (2017)). Briefly, agarose (0.5 g) was dissolved in 50 mL of MilliQ water or PBS in a conical flask and the solution was heated in a microwave for 1-2 minutes until completely dissolved. Melted agarose was transferred into a sterile tissue culture hood and immediately poured into a 50-mL sterile basin. 50 μL of melted agarose was dispensed into each well in a 96-well plate using a multichannel pipette. The plate was set aside to allow agarose to solidify completely inside the wells for at least 15 minutes. […] Each cell type was counted using a hemocytometer, and 1,500 of each cell type were seeded into each well containing solidified agarose. […]
For peptide permeability analyses, after 48 hrs, organoids that formed successfully were pooled together into a 0.5-mL microcentrifuge tube in BBB working medium. […] The organoids were then transferred onto a thin-well chambered coverglass and imaged by confocal fluorescence microscopy. Quantification of peptide permeability was performed using the ImageJ software, where the mean fluorescence intensity of the core of each spheroid (at a depth between 50-90 μm) was measured, and then plotted on GraphPad Prism.

CC[C@@]1(O)C(=O)OCc2c1cc1n(c2=O)Cc2cc3ccccc3nc2-1 [CPT, camptothecin]
solubility of CPT itself [1]: insoluble

CC(C)[C@@H](NC(=O)[C@@H](Cc1c[nH]cn1)NC(=O)CNC(=O)[C@@H](Cc1c[nH]c2ccccc12)NC(=O)[C@@H](CCCCN)NC(=O)[C@H](N)[C@H](C)O)C(=O)N[C@H](CC(N)=O)C(=O)N[C@H](CCCCN)C(N)=O [BTP-7, TKWGHVNK]
influx into the core of the BBB organoids (human BBB organoids): dramatic influx
